“Also recorded” adds a separate entry of the source.
Experiments:
SNAP-tagged human GIPR = test: TR-FRET receptor clustering, SNAP-GIPR; type: cell-based; conditions: 100 nM, 37 °C, n = 4
Procedure: The time-resolved fluorescence resonance energy transfer (TR-FRET) assay was performed as previously described ([24]). INS-1 832/3 SNAP-GLP-1R or SNAP-GIPR cells were labeled in suspension with 40 nM SNAP-Lumi4-Tb and 1 mM SNAP-Surface 649 (New England Biolabs, Hitchin, UK) for 1 hour at room temperature in complete medium. […] TR-FRET was quantified as the ratio of fluorescent signal at 665 nm to that at 616 nm, after subtraction of background signal at each wavelength.
Figure 3. GLP-1R vs GIPR clustering propensities in beta cells. […] Diffusion coefficients for individual ROIs are indicated on each image, with corresponding intensity traces, as well as 2D and fitted 3D autocorrelation maps for each ROI, are also depicted. (B) Average RICS diffusion coefficients for each receptor and treatment for each cell analyzed from n = 4 experiments. (C) GLP-1R clustering kinetics measured by TR-FRET in INS-1 832/3 SNAP-GLP-1R cells treated with 100 nM agonist as indicated, with vehicle-corrected AUCs included; n = 4. (D) GIPR clustering kinetics measured by TR-FRET in INS-1 832/3 SNAP-GIPR cells treated with 100 nM agonist as indicated, with vehicle-corrected AUCs included; n = 4. Data are mean ± SEM, compared by one-way ANOVA with Sidak's test; ****P < .0001; ns: non-significant. […] Best readings: GLP-1R Veh i 2.03, ii 1.56, iii 1.44 μm^2/s; GIPR Veh i 0.80, ii 0.34, iii 0.44 μm^2/s. […]

GIPR-NanoLuc = test: KRAS-Venus bystander NanoBRET (plasma membrane), GIPR; type: cell-based; conditions: n = 5
From the text: GLP-1R-NanoLuc was generated in house by polymerase chain reaction (PCR) cloning of the NanoLuciferase sequence from pcDNA3.1-ccdB-NanoLuc (a gift from Prof. Mikko Taipale; Addgene plasmid # 87067) onto the C-terminus end of the SNAP-GLP-1R vector (CisBio), followed by site-directed mutagenesis of the GLP-1R stop codon. GIPR-NanoLuc was subsequently cloned in house by exchanging the GLP-1R for the GIPR in the GLP-1R-NanoLuc construct. KRAS- and Rab5-Venus plasmids were a gift from Prof. Kevin Pfleger, University of Western Australia. The INS-1 832/3 GLP-1R KO and GIPR KO cells were seeded in 12-well plates and co-transfected with 0.2 µg KRAS-Venus and 0.1 µg GLP-1R- or GIPR-NanoLuc, respectively, or 0.5 µg Rab5-Venus and 0.1 µg GLP-1R- or GIPR-NanoLuc, respectively.
All NanoBiT and NanoBRET readings were obtained in a Flexstation 3 plate reader. Briefly, 24 hours after transfection, cells were detached, resuspended in NanoGlo Live Cell Reagent (Promega) with furimazine (1:20 dilution) and seeded into white 96-well half-area plates. […] Readings were normalized to well baseline and then to average vehicle-induced signal to establish the agonist-induced effect. AUCs from response curves were calculated for each agonist concentration and fitted to four-parameter curves using Prism 9 (GraphPad).
Figure 2. Endosomal vs plasma membrane localization of GLP-1R compared with GIPR in beta cells. […] Data are mean ± SEM, compared by paired t tests or two-way ANOVA with Sidak's test; *P < .05.

[1] = tested on: calcium response in INS-1 832/3 cells; test: Calcium assay, INS-1 832/3 cells; type: cell-based, rat; conditions: for Calcium response, net difference between both receptors: INS-1 832/3
Procedure: (§1) Imaging of INS-1 832/3 cells or whole-islet Ca^2+ dynamics was performed as follows: cells or Matrigel-encased islets from individual animals were loaded with the Ca^2+ responsive dye Cal-520 AM (AAT Bioquest), pre-incubated for 1 hour in KRBH G6, and imaged in MatTek glass bottom dishes every 6 second at 488 nm using a Nikon Eclipse Ti microscope with an ORCA-Flash 4.0 camera (Hamamatsu) and Metamorph software (Molecular Devices) while maintained at 37 °C on a heated stage. Raw fluorescence intensity traces from cell-occupied areas or islet ROIs were extracted using Fiji. Responses were plotted relative to the average fluorescence intensity during the 6 mM glucose baseline period, before agonist addition.
(§2) Figure 7. Functional analysis of GLP-1R vs GIPR signaling in beta cells. […] Data are mean ± SEM, compared by paired t tests; *P < .05; ns, nonsignificant.

INS-1 832/3 WT cells = test: Insulin secretion assay, INS-1 832/3 WT cells; type: cell-based, rat; conditions: 100 nM, 11 mM glucose; WT n = 3
Procedure: At the end of the treatments, the supernatant containing the secreted insulin was collected, centrifuged at 1000g for 3 minutes, and transferred to a fresh tube. To determine total insulin content, cells were lysed using KRBH buffer + 1% w/v BSA + 1% v/v Triton X-100 (Sigma). The lysates were sonicated 3 × 10 seconds in a water bath sonicator and centrifuged at 10 000g for 10 minutes, and the supernatants collected. The samples were stored at −20 °C until the insulin concentration was determined using an Insulin Ultra-Sensitive HTRF Assay kit (62IN2PEG, Cisbio, Codolet, France) according to the manufacturer's instructions.
as §2

[2] = tested on: calcium response in purified WT mouse islets; test: Calcium assay, WT mouse islets; type: cell-based; conditions: Cal-520 AM; 100 nM; n = 4
Procedure: Nondiabetic mice of both sexes were used for islet isolation. Briefly, pancreata were infused via the common bile duct with RPMI-1640 medium containing 1 mg/mL collagenase from Clostridium histolyticum (Nordmark Biochemicals), dissected, and incubated in a water bath at 37 °C for 10 minutes. Islets were subsequently washed and purified using a Histopaque gradient (Histopaque-1119, 11191, Sigma-Aldrich, and Histopaque-1083, 10831, Sigma-Aldrich). Isolated islets were allowed to recover overnight at 37 °C in 5% CO2 in RPMI-1640 supplemented with 10% FBS and 1% penicillin/streptomycin. […]
as §1, with “addition. […]” for “addition.”

SNAP-tagged human GLP-1R = SNAP-tagged human GLP-1R (Homo sapiens, UniProt P43220); test: TR-FRET receptor clustering, SNAP-GLP-1R; type: cell-based; conditions: 100 nM, 37 °C, n = 4
SNAP-tagged human GLP-1R, sequence (P43220 24-463): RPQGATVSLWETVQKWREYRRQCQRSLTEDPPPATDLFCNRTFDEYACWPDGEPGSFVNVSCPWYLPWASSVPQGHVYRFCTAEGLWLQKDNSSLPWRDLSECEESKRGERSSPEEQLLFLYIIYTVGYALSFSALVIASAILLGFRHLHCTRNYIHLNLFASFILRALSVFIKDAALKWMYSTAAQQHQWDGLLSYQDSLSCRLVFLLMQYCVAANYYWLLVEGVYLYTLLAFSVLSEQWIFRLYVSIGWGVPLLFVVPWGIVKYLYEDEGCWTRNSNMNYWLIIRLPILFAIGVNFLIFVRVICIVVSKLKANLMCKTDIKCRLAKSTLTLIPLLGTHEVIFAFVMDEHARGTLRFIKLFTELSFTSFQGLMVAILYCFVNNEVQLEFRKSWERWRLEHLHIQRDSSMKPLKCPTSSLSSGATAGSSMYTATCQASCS

Substance	GIPR clustering (SNAP-tagged human GIPR)	Plasma membrane retention of GIPR compared with GLP-1R (GIPR-NanoLuc; INS-1 832/3 KO cells)	Maximal internalization response (Emax), GIPR vs GLP-1R (GIPR-NanoLuc)	Potency (logEC50), GIPR vs GLP-1R (GIPR-NanoLuc)	Calcium response, net difference between both receptors ([1]; Cal-520 AM, 100 nM, n = 4)	Calcium response, GIPR compared with GLP-1R, 0-1 minute ([1]; Cal-520 AM, 100 nM, first minute, n = 4)	Calcium response, GIPR compared with GLP-1R, 1-5 minutes ([1]; Cal-520 AM, 100 nM, following 4 minutes, n = 4)	Calcium response tendency, GIP vs GLP-1, INS-1 832/3 ([1]; summary in discussion)	Insulin secretion, GIP compared with GLP-1 (INS-1 832/3 WT cells)	Calcium influx, GIP vs GLP-1, primary islets [2]	GLP-1R clustering (SNAP-tagged human GLP-1R)
GIP(1-42)	could not be detected	increased propensity for plasma membrane retention	reduced maximal internalization responses	no changes in potency	zero net difference	initial trend for a decreased GIPR compared with GLP-1R response	this tendency was reversed	tendency toward increased	nonsignificant tendency toward improvement; also recorded: tendency toward increased	significant increase	not detectable
GLP-1(7-36)NH2	not detectable	–	–	–	zero net difference	–	–	–	–	–	–
